Laboratory results taken from patent US10035792B2, “Resorcinol derivative as HSP90 inhibitor” (priority 2015, dated 2018).
Blank lines part the entries; values can stand above or below the compound they belong to.

Legend:
HSP90α = HSP90α (Homo sapiens (Human), UniProt P07900); assay: Fluorescence polarization (FP) HSP90-alpha target binding assay; settings: fluorescence polarization; read-out: Target binding ability HSP90α FP IC50
In short: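 Displacement of 5 nM GM-BODIPY from 30 nM HSP90 measured by fluorescence polarization (ex 485/em 535 nm). Buffer: 100 mM Tris-Cl pH 7.4, 20 mM KCl, 6 mM MgCl2, 5 μg/mL BSA. Incubation 12–16 h at 4 °C. Percent inhibition from mP relative to compound-free and tracer-only controls.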

[1] = tested on: human colon cancer cell line HCT116; assay: Tumor cell growth inhibition, SRB staining, HCT116; assay type: cell-based; settings: HCT-116, HCT116, 72 h
Method: The growth inhibition assay of tumor cells was detected by sulforhodamine B (SRB) staining method. The specific steps were as follows: inoculating human colon cancer cell line HCT116 and human lung cancer cell line A549 (purchased from American Type Culture Collection, ATCC) at the logarithmic growth phase into a 96-well micro culture plate at an appropriate concentration of 4000 cells/well, 100 μL for each well; after culturing overnight, adding with the compound at different concentrations (100, 10, 1, 0.1, 0.01 μM) to react for 72 h, wherein triplicate wells were set up for each concentration, and solvent control wells with the corresponding concentration and zero wells without cells were also set up. After the completion of the reaction, the culture medium was removed from the adherent cells, the later was added with 10% (w/v) trichloroacetic acid (100 μL/well) at 4° C. to fix for 1 h, and then washed five times with distilled water. After drying at room temperature, 100 μL of SRB solution (4 mg/mL, dissolved in 1% glacial acetic acid) was added into each well, followed by incubation and staining for 15 min at room temperature. The uncombined SRB was removed by washing five times with 1% glacial acetic acid. After drying at room temperature, 100 μL of 10 mM Tris solution was added into each well, and the optical density (OD) at 515 nm was measured by a […] microplate reader. The inhibition rate of the drug to tumor cell growth was calculated according to the following equation: Inhibition rate (%)=(OD of control well-OD of drug well)/OD of control well×100%. The experiment was repeated twice.

A549 tumor cells = assay: In vivo efficacy, A549 transplantation tumor in nude mice; settings: A549 xenograft, 50 mg/kg intravenously twice a week
Method: (§1) A549 tumor cells were subcutaneously inoculated in the right armpit of nude mice in 5×10^6 cells/mouse, to form a transplantion tumor. When the volume reached 100-200 mm^3, the animals were randomly divided according to tumor volume, into the negative control group (n=5), the positive control group groups (n=5 in each group), and the experimental groups (n=5 in each group). The experimental groups were respectively injected intravenously with the positive drug Luminespib (50 mg/kg) and compound 1 (50 mg/kg) at different concentrations, twice a week, and the negative control group was administrated an equal amount of solvent simultaneously. The length (A) and width (B) of the tumor were measured twice a week with a vernier caliper, and the tumor volume was calculated according to V=A×B^2/2. Relative tumor volume (RTV) was calculated as follows: RTV=Vt/V0, wherein Vt is the tumor volume at the end of the administration, and V0 is the tumor volume measured before separation and administration. The pharmacodynamic evaluation index of antitumor activity is relative tumor proliferation rate T/C (%), and the calculation formula is: T/C (%)=TRTV/CRTV×100%, wherein TRTV: RTV of the treatment group; CRTV: RTV of the negative control group. Efficacy evaluation criteria: T/C %>60% is inefficient; T/C %≤60% and P<0.05 by statistical treatment is effective. The tumor growth inhibition rate (TGI) was calculated as follows: TGI (%)={[(CVt−CV0)−(TVt−TV0)]/(CVt−CV0)}×100%
(§2) Wherein, CVt is the tumor volume of the control group at the end of the administration; CV0 is the tumor volume of the control group before separation and administration; TVt is the tumor volume of the administration group at the end of the administration; and TV0 is the tumor volume of the administration group before separation and administration. The difference in tumor volume between the administration group and the control group was examined by t-test. At the same time, the body weights of nude mice in each group were weighed twice a week to preliminarily evaluate the toxic side effects of the drug.

in vivo = assay: in vivo; parameters: species or system SD rats; settings: male, SD, rat, iv, 1 mg/kg
Method: SD rats were used as the subject animals. The drug concentrations in plasma, lung and breast tissue were measured by LC/MS/MS method at different times after the compound of Example 67 was intravenously injected at the tails of rats. The tissue distribution of the compounds of the present invention in rats was studied and their pharmacokinetic characteristics were evaluated. 2.1 Experimental Drugs: Luminespib, Ganetespib and the compound of Example 67. Healthy adult male SD rats, 100-200 g, 9 rats in total, purchased from Shanghai Slack Laboratory Animal Co., Ltd. The appropriate amounts of the samples were weighed. All of Luminespib, Ganetespib and the compound 67 of the present invention were formulated into clear solutions in […] in 10% DMSO/14% Cremophor RH40/76% D5W, for intravenous injection. 9 SD male rats were divided into three groups, three rats in each group. After normal feeding, administrations were carried out in tails by intravenous injection at the dose of 1 mg/kg. Samples were collected from blood, lung and breast tissues in three group rats at 0.5 h, 6 h and 24 h after administration. The blood samples were centrifuged at 4° C., 3000 rpm for 15 min within half an hour after collection, to separate and obtain plasma samples. The resulting plasma samples were placed in polypropylene tubes and stored at −80° C. for LC/MS/MS analysis. After the collection of the blood samples, the animals were sacrificed with CO2, followed by collection of the tissue samples. Each of the tissue samples was washed twice with cold deionized water and adhered to filter papers. Each of the tissue samples was then homogenized several times in MeOH/15 mM PBS (1:2) (5 mL MeOH/15 mM PBS (1:2) per gram of tissue, with a dilution factor of 6) to ensure the formation of homogeneous phase. The whole process was carried out below freezing point temperature. The homogenized samples were quickly frozen by using dry ice and stored at −80° C. for bioanalysis. The contents of the test compound in rat plasma, lung and breast tissue after injection administration were measured by LC/MS/MS.

BT-474 tumor cells = assay: In vivo efficacy, BT-474 breast cancer transplantation tumor in nude mice; settings: BT-474 xenograft
Method: as §1, with “BT-474 tumor” for “A549 tumor”, “group (n=6),” for “group (n=5),”, “groups (n=6” for “groups (n=5”, “drug Ganetespib (20” for “drug Luminespib (50”, “compound 67 (10 mg/kg and 20” for “compound 1 (50”, “concentrations, three times” for “concentrations, twice”
as §2

[2] = tested on: human lung cancer cell line A549; assay: Tumor cell growth inhibition, SRB staining, A549; assay type: cell-based; settings: A549, 72 h
In short: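 Growth inhibition by SRB staining: 4000 cells/well seeded overnight, then compound at 100, 10, 1, 0.1 and 0.01 μM for 72 h in triplicate. Fixed with TCA, OD read at 515 nm. Inhibition rate taken against solvent control; experiment done twice.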

[3] = concentration in breast tissue (nM)
[4] = 20 mpk intravenously three times a week
[5] = 10 mpk intravenously three times a week

Compound: CCNC(=O)c1noc(-c2cc(C(C)C)c(O)cc2O)c1-c1ccc2c(c1)N(C)CCC2 [Example 2, 5-(2,4-dihydroxyl-5-isopropylphenyl)-N-ethyl-4-(1-methyl-1,2,3,4-tetrahydroquinolin-7-yl)isoxazole-3-carboxamide]
IC50 (HSP90α): 20 to 100 nM | EC50 [1]: 20 to 100 nM

Compound: CCNC(=O)c1nsc(-c2cc(C(C)C)c(O)cc2O)c1-c1ccc2c(c1)CCN(C)C2 [Example 13, 5-(2,4-dihydroxyl-5-isopropyl-phenyl)-N-ethyl-4-(2-methyl-1,2,3,4-tetrahydroisoquinolin-6-yl)isothiazole-3-carboxamide]
IC50 (HSP90α): > 100 nM | EC50 [1]: > 100 nM

Compound: CCNC(=O)c1noc(-c2cc(C(C)C)c(O)cc2O)c1-c1ccc2c(c1)CCN(C)C2 [Example 1, 5-(2,4-dihydroxyl-5-isopropylphenyl)-N-ethyl-4-(2-methyl-1,2,3,4-tetrahydroisoquinolin-6-yl)isoxazole-3-carboxamide]
IC50 (HSP90α): < 20 nM | EC50 [1]: < 20 nM | EC50 [2]: < 20 nM | TGI (%) Day 7 (A549 tumor cells): 20% | TGI (%) Day 11 (A549 tumor cells): 40% | TGI (%) Day 14 (stopping administration) (A549 tumor cells): 63% | TGI (%) Day 17 (A549 tumor cells): 71% | TGI (%) Day 28 (A549 tumor cells): 60%

Compound: CCNC(=O)c1noc(-c2cc(C(C)C)c(O)cc2O)c1-c1ccc2c(c1)CCCN2C [Example 3, 5-(2,4-dihydroxyl-5-isopropylphenyl)-N-ethyl-4-(1-methyl-1,2,3,4-tetrahydroquinolin-6-yl)isoxazole-3-carboxamide]
IC50 (HSP90α): 20 to 100 nM | EC50 [1]: 20 to 100 nM

More lines, main results first:

IC50 (HSP90α): < 20 nM | EC50 [1]: < 20 nM
Compound: CCNC(=O)c1noc(-c2cc(C(C)C)c(O)cc2O)c1C1=CC2CN(C)CC2C1 (stereo not drawn) [Example 14, 5-(2,4-dihydroxyl-5-isopropyl-phenyl)-N-ethyl-4-(2-methyl-1,2,3,3a,4,6a-hexahydrocyclopenta[c]pyrrol-5-yl)isoxazole-3-carboxamide]

pulmonary exposure dose (in vivo): 5284 nM·h | concentration at 0.5 h (in vivo; [3]): 104 nM | concentration at 6 h (in vivo; [3]): 61.4 nM | concentration at 0.5 h (in vivo; plasma concentration (nM)): 67.1 nM | concentration at 0.5 h (in vivo; pulmonary concentration (nM)): 1000 nM | concentration at 6 h (in vivo; pulmonary concentration (nM)): 257 nM | concentration at 24 h (in vivo; pulmonary concentration (nM)): 35.9 nM
Compound: CCNC(=O)c1noc(-c2cc(C(C)C)c(O)cc2O)c1-c1ccc(CN2CCOCC2)cc1 [Luminespib]
TGI (%) Day 7 (A549 tumor cells): 18% | TGI (%) Day 11 (A549 tumor cells): 34% | TGI (%) Day 14 (stopping administration) (A549 tumor cells): 49% | TGI (%) Day 17 (A549 tumor cells): 52% | TGI (%) Day 28 (A549 tumor cells): 35%

concentration at 0.5 h (in vivo; [3]): 352 nM | concentration at 6 h (in vivo; [3]): 70.9 nM | concentration at 0.5 h (in vivo; plasma concentration (nM)): 267 nM | concentration at 6 h (in vivo; plasma concentration (nM)): 4.46 nM | concentration at 0.5 h (in vivo; pulmonary concentration (nM)): 1010 nM | concentration at 6 h (in vivo; pulmonary concentration (nM)): 101 nM
Compound: CC(C)c1cc(-c2n[nH]c(=O)n2-c2ccc3c(ccn3C)c2)c(O)cc1O [Ganetespib]
TGI (%) Day 21 (BT-474 tumor cells; [4]): 124% | TGI (%) Day 35 (BT-474 tumor cells; [4]): 108%

IC50 (HSP90α): < 20 nM | EC50 [2]: < 20 nM | breast tissue exposure dose (in vivo): 7226 nM·h | plasma exposure dose (in vivo): 415 nM·h | pulmonary exposure dose (in vivo): 30933 nM·h | concentration at 0.5 h (in vivo; [3]): 395 nM | concentration at 6 h (in vivo; [3]): 376 nM | concentration at 24 h (in vivo; [3]): 199 nM | concentration at 0.5 h (in vivo; plasma concentration (nM)): 115 nM | concentration at 6 h (in vivo; plasma concentration (nM)): 9.98 nM | concentration at 24 h (in vivo; plasma concentration (nM)): 3.72 nM | concentration at 0.5 h (in vivo; pulmonary concentration (nM)): 3040 nM | concentration at 6 h (in vivo; pulmonary concentration (nM)): 1530 nM | concentration at 24 h (in vivo; pulmonary concentration (nM)): 613 nM
Compound: CCNC(=O)c1onc(-c2cc(C(C)C)c(O)cc2O)c1-c1ccc2c(c1)CCNC2 [Example 67, 3-(2,4-dihydroxyl-5-isopropylphenyl)-N-ethyl-4-(1,2,3,4-tetrahydroisoquinolin-6-yl)isoxazole-5-carboxamide]
TGI (%) Day 21 (BT-474 tumor cells; [5]): 137% | TGI (%) Day 35 (BT-474 tumor cells; [5]): 120% | TGI (%) Day 21 (BT-474 tumor cells; [4]): 135% | TGI (%) Day 35 (BT-474 tumor cells; [4]): 129%
